According to patent US6461997B1, “Triazole sulfones having herbicidal activity” (Monsanto Technology LLC, priority 1999, dated 2002):

What was measured:
[1] = system: PANMI (wild proso millet); assay: Pre-emergence herbicidal activity, warm season; type: in vivo, Panicum miliaceum; settings: for Pre-emergence activity (GR80) PANMI: GR80 = lowest tested rate (300, 100, 30, 10 g/ha) with 80% or greater inhibition, approx. 14 days after treating, 30/21° C.
How it was run: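 Each pot received seeds on sterilized fertilized topsoil, a soil cover, and a surface spray of compound (300–10 g/ha, acetone/water 50:50). Plants grew about 14 days at 30/21 °C (PANMI, DIGSA) or 18/13 °C (ALOMY, POLCO) before inhibition was rated against untreated pots to give GR80.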

PANDI (fall panicum) = assay: Pre-emergence herbicidal activity, warm season; type: in vivo, Panicum dichotomiflorum; settings: GR80 = lowest tested rate (300, 100, 30, 10 g/ha) with 80% or greater inhibition; approx. 14 days after treating; 30/21° C.
How it was run: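 Activity is expressed as the rate giving 80% inhibition, with 300, 100, 30 and 10 g/ha typically tested. An asterisk marks activity short of 80% at the top rate. Warm-season grasses were held at 30/21 °C; cool-season blackgrass and wild buckwheat at 18/13 °C; scoring at about 14 days.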

ABUTH (velvetleaf) = assay: Pre-plant incorporated (PPI) herbicidal activity, warm season; type: in vivo, Abutilon theophrasti; settings: for PPI activity (GR80) ABUTH: pre-plant incorporated, GR80 = lowest tested rate with 80% or greater inhibition, approx. 14 days after treating, 30/21° C.
Experimental: (§1) In another set of tests, the pre-plant incorporated (PPI) activity of compounds of this invention was evaluated on the same species as for the pre-emergence tests described above. In the PPI tests the following procedure, designed to simulate PPI application, was used.
(§2) A pre-prepared topsoil mixture (described above) was placed in a pot and compacted to a depth of 1.0 to 1.25 cm from the top of the pot. Seeds of each of several monocotyledonous and dicotyledonous annual plant species were placed on top of the soil. A sufficient quantity of soil to cover the seeds and level fill the pot was weighed into an open container. A known amount of the test compound was dissolved or suspended in an organic solvent and applied by spraying to this cover soil. The cover soil was thoroughly mixed to distribute the test compound throughout the cover soil, and was then applied as a cover layer over the seeds. Untreated soil was used as a cover layer for control pots. After treatment the plants were placed in a greenhouse where they received 0.64 cm of overhead irrigation. All subsequent watering consisted of a light overhead mist and/or subirrigation as needed for germination and growth. Tables 9 and 10 below relate to warm season plant species which were placed after pre-emergence treatment in a greenhouse with a 30/21° C. day/night temperature regime. Tables 11 and 12 below relates to cool season plant species placed after pre-emergence treatment in a greenhouse or growth chamber with an 18/13° C. day/night temperature regime. Only the compounds of Examples 1, 6, 8, 11, 13 and 15-20 were included in PPI tests.
(§3) Approximately 14 days after planting and treating, the plants were observed and herbicidal efficacy recorded as percent inhibition by comparison with untreated plants.

AMARE (redroot pigweed) = assay: as above; type: in vivo, Amaranthus retroflexus; settings: for PPI activity (GR80) AMARE: pre-plant incorporated, GR80 = lowest tested rate with 80% or greater inhibition, approx. 14 days after treating, 30/21° C.
Experimental: as §1, §2, §3

BROTE (downy brome) = assay: Pre-plant incorporated (PPI) herbicidal activity, cool season; type: in vivo, Bromus tectorum; settings: for PPI activity GR80, BROTE: pre-plant incorporated, lowest tested rate with 80% or greater inhibition, about 14 days
Experimental: as §1, §2, §3

AVEFA (wild oat) = assay: as above; type: in vivo, Avena fatua; settings: for PPI activity GR80, AVEFA: pre-plant incorporated, lowest tested rate with 80% or greater inhibition, about 14 days
Experimental: as §1, §2, §3

LOLMG (annual ryegrass) = assay: Post-emergence herbicidal activity, cool season; type: in vivo, Lolium multiflorum; settings: abraded plants sprayed at 300, 100, 30 and 10 g/ha; about 14 days after treatment
How it was run: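 Greenhouse-grown seedlings were abraded 9–14 days after planting, then sprayed at 300, 100, 30 and 10 g/ha in acetone:water (3,100 l/ha). Grown at 18/13 °C day/night, percent inhibition versus abraded unsprayed controls was scored about 14 days after treatment and GR80 assigned.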

[2] = weed, PPI application, 100 g/ha
[3] = weed, PPI application, 300 g/ha
[4] = weed, PPI application, 900 g/ha

CCN(CC)C(=O)n1cnc(S(=O)(=O)C(F)(F)Br)n1 [Example 1, 3-(bromodifluoromethylsulfonyl)-1-(N,N-diethylcarbamoyl)-1,2,4-triazole]
Pre-emergence activity (GR80) PANMI [1]: 100 g/ha | inhibition at 10 g/ha ([1]; Panicum miliaceum, pre-emergence application, 10 g/ha, read-out: Percent inhibition, weed PANMI): 0% | inhibition at 30 g/ha ([1]; Panicum miliaceum, pre-emergence application, 30 g/ha, read-out: Percent inhibition, weed PANMI): 0% | inhibition at 100 g/ha ([1]; Panicum miliaceum, pre-emergence application, 100 g/ha, read-out: Percent inhibition, weed PANMI): 30% | inhibition at 300 g/ha ([1]; Panicum miliaceum, pre-emergence application, 300 g/ha, read-out: Percent inhibition, weed PANMI): 100% | inhibition at 900 g/ha ([1]; Panicum miliaceum, pre-emergence application, 900 g/ha, read-out: Percent inhibition, weed PANMI): 90% | Pre-emergence activity (GR80) PANDI (PANDI (fall panicum)): 30 g/ha | inhibition at 10 g/ha (ABUTH (velvetleaf); Abutilon theophrasti, PPI application, 10 g/ha, read-out: Percent inhibition ABUTH): 0% | inhibition at 30 g/ha (ABUTH (velvetleaf); Abutilon theophrasti, PPI application, 30 g/ha, read-out: Percent inhibition ABUTH): 0% | inhibition at 100 g/ha (ABUTH (velvetleaf); Abutilon theophrasti, PPI application, 100 g/ha, read-out: Percent inhibition ABUTH): 0% | inhibition at 300 g/ha (ABUTH (velvetleaf); Abutilon theophrasti, PPI application, 300 g/ha, read-out: Percent inhibition ABUTH): 20% | inhibition at 900 g/ha (ABUTH (velvetleaf); Abutilon theophrasti, PPI application, 900 g/ha, read-out: Percent inhibition ABUTH): 80% | PPI activity (GR80) ABUTH (ABUTH (velvetleaf)): 100 g/ha | inhibition at 10 g/ha (AMARE (redroot pigweed); Amaranthus retroflexus, PPI application, 10 g/ha, read-out: Percent inhibition AMARE): 0% | inhibition at 30 g/ha (AMARE (redroot pigweed); Amaranthus retroflexus, PPI application, 30 g/ha, read-out: Percent inhibition AMARE): 60% | inhibition at 100 g/ha (AMARE (redroot pigweed); Amaranthus retroflexus, PPI application, 100 g/ha, read-out: Percent inhibition AMARE): 80% | inhibition at 300 g/ha (AMARE (redroot pigweed); Amaranthus retroflexus, PPI application, 300 g/ha, read-out: Percent inhibition AMARE): 100% | inhibition at 900 g/ha (AMARE (redroot pigweed); Amaranthus retroflexus, PPI application, 900 g/ha, read-out: Percent inhibition AMARE): 100% | PPI activity (GR80) AMARE (AMARE (redroot pigweed)): 30 g/ha | inhibition at 30 g/ha (BROTE (downy brome); Bromus tectorum, weed, PPI application, 30 g/ha, read-out: Percent inhibition BROTE): 0% | inhibition at 100 g/ha (BROTE (downy brome); Bromus tectorum, weed, PPI application, 100 g/ha, read-out: Percent inhibition BROTE): 20% | inhibition at 300 g/ha (BROTE (downy brome); Bromus tectorum, weed, PPI application, 300 g/ha, read-out: Percent inhibition BROTE): 50% | inhibition at 900 g/ha (BROTE (downy brome); Bromus tectorum, weed, PPI application, 900 g/ha, read-out: Percent inhibition BROTE): 100% | PPI activity GR80, BROTE (BROTE (downy brome)): 300 g/ha | inhibition at 30 g/ha (AVEFA (wild oat); Avena fatua, weed, PPI application, 30 g/ha, read-out: Percent inhibition AVEFA): 0% | inhibition at 100 g/ha (AVEFA (wild oat); Avena fatua, weed, PPI application, 100 g/ha, read-out: Percent inhibition AVEFA): 20% | inhibition at 300 g/ha (AVEFA (wild oat); Avena fatua, weed, PPI application, 300 g/ha, read-out: Percent inhibition AVEFA): 95% | inhibition at 900 g/ha (AVEFA (wild oat); Avena fatua, weed, PPI application, 900 g/ha, read-out: Percent inhibition AVEFA): 90% | PPI activity GR80, AVEFA (AVEFA (wild oat)): 300 g/ha | Post-emergence activity GR80, LOLMG (LOLMG (annual ryegrass)): [empty]

CCN(CC)C(=O)n1cnc(S(=O)(=O)C(F)(F)SCc2ccccc2)n1 [Example 10]
Pre-emergence activity (GR80) PANMI [1]: 300 g/ha | Pre-emergence activity (GR80) PANDI (PANDI (fall panicum)): 300 g/ha | Percent inhibition ABUTH (ABUTH (velvetleaf); PPI application, 10 g/ha): 0% | Percent inhibition ABUTH (ABUTH (velvetleaf); PPI application, 30 g/ha): 0% | Percent inhibition ABUTH (ABUTH (velvetleaf); PPI application, 100 g/ha): 0% | Percent inhibition ABUTH (ABUTH (velvetleaf); PPI application, 300 g/ha): 30% | Percent inhibition ABUTH (ABUTH (velvetleaf); PPI application, 900 g/ha): 50% | Percent inhibition AMARE (AMARE (redroot pigweed); PPI application, 10 g/ha): 0% | Percent inhibition AMARE (AMARE (redroot pigweed); PPI application, 30 g/ha): 0% | Percent inhibition AMARE (AMARE (redroot pigweed); PPI application, 100 g/ha): 40% | Percent inhibition AMARE (AMARE (redroot pigweed); PPI application, 300 g/ha): 100% | Percent inhibition AMARE (AMARE (redroot pigweed); PPI application, 900 g/ha): 100% | Percent inhibition BROTE (BROTE (downy brome); weed, PPI application, 10 g/ha): 0% | Percent inhibition BROTE (BROTE (downy brome); weed, PPI application, 30 g/ha): 0% | Percent inhibition BROTE (BROTE (downy brome); [2]): 10% | Percent inhibition BROTE (BROTE (downy brome); [3]): 35% | Percent inhibition BROTE (BROTE (downy brome); [4]): 60% | Percent inhibition AVEFA (AVEFA (wild oat); weed, PPI application, 10 g/ha): 0% | Percent inhibition AVEFA (AVEFA (wild oat); weed, PPI application, 30 g/ha): 0% | Percent inhibition AVEFA (AVEFA (wild oat); [2]): 20% | Percent inhibition AVEFA (AVEFA (wild oat); [3]): 40% | Percent inhibition AVEFA (AVEFA (wild oat); [4]): 95% | Post-emergence activity GR80, LOLMG (LOLMG (annual ryegrass)): [empty]

CCN(CC)C(=O)n1cnc(S(=O)(=O)C(F)(F)SCC(=O)OC)n1 [Example 11]
Pre-emergence activity (GR80) PANMI [1]: 300 g/ha | Pre-emergence activity (GR80) PANDI (PANDI (fall panicum)): 300 g/ha | Percent inhibition ABUTH (ABUTH (velvetleaf); PPI application, 10 g/ha): 0% | Percent inhibition ABUTH (ABUTH (velvetleaf); PPI application, 30 g/ha): 0% | Percent inhibition ABUTH (ABUTH (velvetleaf); PPI application, 100 g/ha): 0% | Percent inhibition ABUTH (ABUTH (velvetleaf); PPI application, 300 g/ha): 20% | Percent inhibition ABUTH (ABUTH (velvetleaf); PPI application, 900 g/ha): 20% | PPI activity (GR80) ABUTH (ABUTH (velvetleaf)): 300 g/ha | Percent inhibition AMARE (AMARE (redroot pigweed); PPI application, 10 g/ha): 0% | Percent inhibition AMARE (AMARE (redroot pigweed); PPI application, 30 g/ha): 90% | Percent inhibition AMARE (AMARE (redroot pigweed); PPI application, 100 g/ha): 40% | Percent inhibition AMARE (AMARE (redroot pigweed); PPI application, 300 g/ha): 95% | Percent inhibition AMARE (AMARE (redroot pigweed); PPI application, 900 g/ha): 100% | PPI activity (GR80) AMARE (AMARE (redroot pigweed)): 100 g/ha | PPI activity GR80, BROTE (BROTE (downy brome)): [empty] | Percent inhibition BROTE (BROTE (downy brome); weed, PPI application, 10 g/ha): 0% | Percent inhibition BROTE (BROTE (downy brome); weed, PPI application, 30 g/ha): 0% | Percent inhibition BROTE (BROTE (downy brome); [2]): 0% | Percent inhibition BROTE (BROTE (downy brome); [3]): 0% | Percent inhibition BROTE (BROTE (downy brome); [4]): 20% | PPI activity GR80, AVEFA (AVEFA (wild oat)): [empty] | Percent inhibition AVEFA (AVEFA (wild oat); weed, PPI application, 10 g/ha): 0% | Percent inhibition AVEFA (AVEFA (wild oat); weed, PPI application, 30 g/ha): 0% | Percent inhibition AVEFA (AVEFA (wild oat); [2]): 0% | Percent inhibition AVEFA (AVEFA (wild oat); [3]): 0% | Percent inhibition AVEFA (AVEFA (wild oat); [4]): 60% | Post-emergence activity GR80, LOLMG (LOLMG (annual ryegrass)): [empty]
